Values of other authors, collected in patent publication US20200170950A1, “COMPOSITIONS COMPRISING A CANNABINOID OR A CANNABIS-DERIVED COMPOUND, METHODS OF MAKING AND USE” (priority 2018, published 2020).

Assays:
[1] = system: α2-adrenergic receptor
[2] = biological target: T1, 5-HT1A receptor (Homo sapiens, UniProt P08908)
T1 sequence (P08908 1-422): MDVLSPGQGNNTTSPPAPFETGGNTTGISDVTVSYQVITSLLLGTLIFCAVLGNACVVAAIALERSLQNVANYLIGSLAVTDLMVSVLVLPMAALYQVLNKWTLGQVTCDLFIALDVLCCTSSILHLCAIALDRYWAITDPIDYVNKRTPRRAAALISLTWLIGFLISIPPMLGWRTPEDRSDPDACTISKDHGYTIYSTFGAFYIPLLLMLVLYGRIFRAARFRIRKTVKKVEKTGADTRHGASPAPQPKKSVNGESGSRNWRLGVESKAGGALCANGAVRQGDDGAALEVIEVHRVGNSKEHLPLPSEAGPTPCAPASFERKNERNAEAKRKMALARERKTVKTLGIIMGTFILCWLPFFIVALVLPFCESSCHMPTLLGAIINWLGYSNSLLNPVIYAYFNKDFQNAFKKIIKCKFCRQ

[3] = biological target: CB1 receptor (Homo sapiens, UniProt P21554)
[4] = biological target: CB2 receptor (Homo sapiens, UniProt P34972)
Chain of CB2 receptor (P34972 whole entry): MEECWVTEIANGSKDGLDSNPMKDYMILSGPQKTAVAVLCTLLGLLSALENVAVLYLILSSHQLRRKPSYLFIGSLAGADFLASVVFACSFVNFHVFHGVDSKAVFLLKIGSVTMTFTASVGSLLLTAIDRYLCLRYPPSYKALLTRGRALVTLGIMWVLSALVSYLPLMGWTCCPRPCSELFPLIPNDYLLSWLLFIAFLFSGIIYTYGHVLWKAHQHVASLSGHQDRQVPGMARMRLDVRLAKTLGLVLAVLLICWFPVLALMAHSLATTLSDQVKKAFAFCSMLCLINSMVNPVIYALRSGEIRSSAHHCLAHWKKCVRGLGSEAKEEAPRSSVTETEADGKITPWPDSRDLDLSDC

Chain of CB1 receptor (P21554 whole entry): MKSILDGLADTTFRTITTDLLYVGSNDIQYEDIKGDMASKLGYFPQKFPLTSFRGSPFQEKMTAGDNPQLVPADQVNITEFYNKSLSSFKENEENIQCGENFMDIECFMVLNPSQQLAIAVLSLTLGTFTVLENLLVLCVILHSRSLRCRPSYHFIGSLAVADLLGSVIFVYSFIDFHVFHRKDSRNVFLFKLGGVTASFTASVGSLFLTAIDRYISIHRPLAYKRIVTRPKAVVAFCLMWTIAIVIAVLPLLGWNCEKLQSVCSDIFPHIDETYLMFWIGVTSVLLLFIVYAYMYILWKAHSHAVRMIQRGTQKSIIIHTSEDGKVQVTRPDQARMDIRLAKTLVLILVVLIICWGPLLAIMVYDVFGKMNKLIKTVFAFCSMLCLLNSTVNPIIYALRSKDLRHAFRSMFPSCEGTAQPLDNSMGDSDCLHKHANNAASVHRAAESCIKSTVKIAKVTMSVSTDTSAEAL

CCCCCc1cc(O)c(C/C=C(\C)CCC=C(C)C)c(O)c1 [CBG, Cannabigerol]
affinity, α2-adrenergic receptor agonist [1]: high affinity
affinity, 5-HT1A receptor antagonist [2]: moderate affinity
activity/affinity at CB1 receptor [3]: low affinity
activity/affinity at CB2 receptor [4]: antagonist

CCCCCc1cc(O)c2c(c1)OC(C)(C)c1ccc(C)cc1-2 [CBN, Cannabinol]
activity/affinity at CB1 receptor [3]: partial agonist
activity/affinity at CB2 receptor [4]: higher affinity
